Measured values reported in article PMC11191095, “QSAR Reveals Decreased Lipophilicity of Polar Residues Determines the Selectivity of Antimicrobial Peptide Activity” (ACS Omega, 2024).
Where a SMILES comes first, the peptide text is derived from it.

Experiments:
Test in all cases: microbe, parasite or virus in culture
C. glabrata NCPF 8018 = assay type: cell-based; settings: C. glabrata NCPF 8018
Method in brief: (§1)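 Peptides 128→2 μg/mL, 2-fold series; inoculum ~5 × 10^5 CFU/mL from overnight culture (OD600 0.01, mixed 1:1). MHB non-cation-adjusted for bacteria, RPMI 1640 + 2% glucose for fungi. 37 °C, 20 h, OD600. MIC50/MIC90 at 50%/90% inhibition; n ≥ 3.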

[1] = system: C. parapsilosis NCPF 3209; assay type: cell-based; settings: C. parapsilosis NCPF 3209
Method in brief: as §1

C. tropicalis NCPF 8760 = assay type: cell-based; settings: C. tropicalis NCPF 8760
Method in brief: as §1

C. albicans NCPF 3281 = assay type: cell-based; settings: C. albicans NCPF 3281
Method in brief: as §1

C. krusei NCPF 3876 = assay type: cell-based; settings: C. krusei NCPF 3876
Method in brief: as §1

K. pneumoniae M6 = assay type: cell-based, Klebsiella pneumoniae; settings: K. pneumoniae M6 (S)
Method in brief: as §1

K. pneumoniae NCTC 13368 = assay type: cell-based, Klebsiella pneumoniae; settings: K. pneumoniae NCTC 13368 (R)
Method in brief: as §1

P. aeruginosa NCTC 13437 = assay type: cell-based, Pseudomonas aeruginosa; settings: P. aeruginosa NCTC 13437 (R)
Method in brief: as §1

A. baumannii AYE = assay type: cell-based, Acinetobacter baumannii; settings: A. baumannii AYE (R)
Method in brief: as §1

A. baumannii ATCC 17978 = assay type: cell-based, Acinetobacter baumannii; settings: A. baumannii ATCC 17978 (S)
Method in brief: as §1

[2] = system: S. aureus (MSSA) ATCC 9144; assay type: cell-based, Staphylococcus aureus; settings: S. aureus (MSSA) ATCC 9144 (S)
Method in brief: as §1

S. aureus (MRSA) USA300 = assay type: cell-based, Staphylococcus aureus; settings: S. aureus (MRSA) USA300 (R)
Method in brief: as §1

S. aureus (MRSA) 1199B = assay type: cell-based, Staphylococcus aureus; settings: S. aureus (MRSA) 1199B (R)
Method in brief: as §1

[3] = system: S. aureus (MRSA) NCTC 13616; assay type: cell-based, Staphylococcus aureus; settings: S. aureus (MRSA) NCTC 13616 (R)
Method in brief: as §1

E. coli NCTC 12923 = assay type: cell-based, Escherichia coli; settings: E. coli NCTC 12923 (S)
Method in brief: as §1

E. coli LEC001 = assay type: cell-based, Escherichia coli; settings: E. coli LEC001 (R)
Method in brief: as §1

[4] = 50% growth inhibition, RPMI 1640 + 2% glucose, 37 °C, 20 h
[5] = 90% growth inhibition, RPMI 1640 + 2% glucose, 37 °C, 20 h
[6] = MHB, 37 °C, 20 h, OD600, min. three biological repeats

CC[C@H](C)[C@H](N)C(=O)N[C@@H](CCCNC(=N)N)C(=O)NCC(=O)N[C@@H](Cc1ccc(O)cc1)C(=O)N[C@@H](CCCCN)C(=O)NCC(=O)NCC(=O)N[C@@H](Cc1ccc(O)cc1)C(=O)N[C@@H](CS)C(=O)N[C@@H](CCCCN)C(N)=O [Os(3-12)a] (H-IRGYKGGYCK-NH2)
> 112 µM: Modal MIC50 (C. glabrata NCPF 8018; shown in µM) | Modal MIC90 (C. glabrata NCPF 8018; shown in µM) | Modal MIC50 ([1]; shown in µM) | Modal MIC90 ([1]; shown in µM) | Modal MIC50 (C. tropicalis NCPF 8760; shown in µM) | Modal MIC90 (C. tropicalis NCPF 8760; shown in µM) | Modal MIC50 (C. albicans NCPF 3281; shown in µM) | Modal MIC90 (C. albicans NCPF 3281; shown in µM) | Modal MIC50 (C. krusei NCPF 3876; shown in µM) | Modal MIC90 (C. krusei NCPF 3876; shown in µM) | Modal MIC (K. pneumoniae M6; shown in µM) | Modal MIC (K. pneumoniae NCTC 13368; shown in µM) | Modal MIC (P. aeruginosa NCTC 13437; shown in µM) | Modal MIC (A. baumannii AYE; shown in µM) | Modal MIC (A. baumannii ATCC 17978; shown in µM) | Modal MIC ([2]; shown in µM) | Modal MIC (S. aureus (MRSA) USA300; shown in µM) | Modal MIC (S. aureus (MRSA) 1199B; shown in µM) | Modal MIC ([3]; shown in µM) | Modal MIC (E. coli NCTC 12923; shown in µM) | Modal MIC (E. coli LEC001; shown in µM)
> 128 µg/mL: Modal MIC50 (C. glabrata NCPF 8018; [4]) | Modal MIC90 (C. glabrata NCPF 8018; [5]) | Modal MIC50 [1, 4] | Modal MIC90 [1, 5] | Modal MIC50 (C. tropicalis NCPF 8760; [4]) | Modal MIC90 (C. tropicalis NCPF 8760; [5]) | Modal MIC50 (C. albicans NCPF 3281; [4]) | Modal MIC90 (C. albicans NCPF 3281; [5]) | Modal MIC50 (C. krusei NCPF 3876; [4]) | Modal MIC90 (C. krusei NCPF 3876; [5]) | Modal MIC (K. pneumoniae M6; [6]) | Modal MIC (K. pneumoniae NCTC 13368; [6]) | Modal MIC (P. aeruginosa NCTC 13437; [6]) | Modal MIC (A. baumannii AYE; [6]) | Modal MIC (A. baumannii ATCC 17978; [6]) | Modal MIC [2, 6] | Modal MIC (S. aureus (MRSA) USA300; [6]) | Modal MIC (S. aureus (MRSA) 1199B; [6]) | Modal MIC [3, 6] | Modal MIC (E. coli NCTC 12923; MHB, ~5×10^5 CFU/mL, 37 °C, 20 h, OD600, min. three biological repeats) | Modal MIC (E. coli LEC001; [6])
